Source: ChEMBL document CHEMBL1121704, “Fluorinated retinoic acids and their analogues. 2. Synthesis and biological activity of aromatic 4-fluoro analogues” (1981)

Experiments:
Format in all cases: functional
Mus musculus [1] = assay: In vivo anti-papilloma activity against chemically induced skin papillomas in mice at dose of 80(mg/kg)/day
Mus musculus [2] = assay: In vivo anti-papilloma activity against chemically induced skin papillomas in mice at dose of 20(mg/kg)/day
Mus musculus [3] = assay: In vivo anti-papilloma activity against chemically induced skin papillomas in mice at dose of 40 mg/kg/day
Mus musculus [4] = species on record: Mus musculus; assay: Hypervitaminosis dose determined as a measure of toxicity
Mus musculus [5] = assay: In vivo anti-papilloma activity against chemically induced skin papillomas in mice at dose of 5(mg/kg)/day
Mus musculus [6] = assay: In vivo anti-papilloma activity against chemically induced skin papillomas in mice at dose of 10 mg/kg/day

## CCOC(=O)/C=C(C)/C(F)=C/C=C(C)/C=C/c1c(C)cc(C)c(Cl)c1C
Mus musculus [1]
  Antipapilloma activity: -64%
Mus musculus [2]
  Antipapilloma activity: -29%
Mus musculus [3]
  Antipapilloma activity: -34%
Mus musculus [4]
  Dose: >200 mg/kg/day

## CCOC(=O)/C=C(C)/C(F)=C/C=C(C)/C=C/c1c(Cl)cc(OC)c(C)c1Cl
Mus musculus [5]
  Antipapilloma activity: -58%
Mus musculus [4]
  Dose: 25 mg/kg/day

## CCOC(=O)/C=C(C)/C(F)=C/C=C(C)/C=C/c1c(C)cc(OC)c(C)c1Cl
Mus musculus [2]
  Antipapilloma activity: -73%
Mus musculus [4]
  Dose: 50 mg/kg/day

## CCOC(=O)/C=C(C)/C(F)=C/C=C(C)/C=C/c1c(C)cc(OC)c(C)c1C
Mus musculus [5]
  Antipapilloma activity: -43%
Mus musculus [1]
  Antipapilloma activity: -82%
Mus musculus [2]
  Antipapilloma activity: -62%
Mus musculus [3]
  Antipapilloma activity: -69%
Mus musculus [4]
  Dose: 50 mg/kg/day
Mus musculus [6]
  Antipapilloma activity: -76%

## CCOC(=O)/C=C(C)/C(F)=C/C=C(C)/C=C/c1c(Cl)cc(OC)c(C)c1C
Mus musculus [5]
  Antipapilloma activity: -41%
Mus musculus [2]
  Antipapilloma activity: -59%
Mus musculus [4]
  Dose: 50 mg/kg/day
Mus musculus [6]
  Antipapilloma activity: -60%

## CCOC(=O)/C=C(C)/C=C/C=C(C)/C=C/c1c(C)cc(OC)c(C)c1C [ETRETINATE]
Mus musculus [1]
  Antipapilloma activity: -47%
Mus musculus [2]
  Antipapilloma activity: -29%
Mus musculus [3]
  Antipapilloma activity: -33%
Mus musculus [4]
  Dose: 100 mg/kg/day
Mus musculus [6]
  Antipapilloma activity: 9%
